Measured values taken from US20110263539A1, “SHIP 1 MODULATOR COMPOUNDS” (THE UNIVERSITY OF BRITISH COLUMBIA, priority 2006, published 2011).

Experiments:
plasma TNFα = assay: Mouse endotoxemia model (Assay 6); assay type: in vivo, C57B16 mice; details: oral administration 30 min prior to LPS, 2 hrs
Procedure: (§1) Assay 6) Mouse endotoxemia model. 6-8 week old C57B16 mice (VCHRI Mammalian Model of Human Disease Core Facility, Vancouver, BC) were orally administered the test compound 30 min prior to an IP injection of 2 mg/kg of LPS (E. Coli serotype 0111:B4, Sigma, Oakville, Ont). Blood was drawn 2 hrs later for determination of plasma TNFα by ELISA.
as §1, with “Mouse” for “Assay 6) Mouse”, “indicated dose of AQX-016A, Compound 100 or dexamethasone or carrier” for “test compound”, “ELISA. Results are representative of 3 independent experiments. (FIGS. 7D and 9)” for “ELISA.”
AQX-016A's ability to provide protection by inhibiting inflammatory reactions in vivo was assessed in mouse models. The mouse model of endotoxic shock involves intraperitoneal (IP) injection of bacterial LPS and measurement of serum TNFα levels 2 hrs later. We orally administered AQX-016A or the steroidal drug dexamethasone to mice 30 min prior to the LPS challenge.

[1] = tested on: SHIP+/+ bone marrow derived macrophages; assay: LPS stimulation of SHIP+/+ bone marrow derived macrophages; assay type: cell-based, mice
Procedure: Bone marrow cells were aspirated from 4 to 8 week old C57B16×129Sv mixed background mice and SHIP and SHIP cells prepared as described previously. Bone marrow derived macrophages from SHIP^+/+ and SHIP^−/− mice were obtained and maintained in IMDM supplemented with 10% FCS, 150 μM MTG, 2% C127 cell conditioned medium as a source of macrophage colony stimulating factor (M-CSF) (macrophage medium)
LPS stimulation of macrophages. For the analysis of LPS-stimulated TNFα production, 2×10^5 cells were plated the night before in 24 well plates in macrophage medium. The next day, the medium was changed and AQX-016A or carrier was added to cells at the indicated concentrations for 30 min prior to the addition of 10 ng/mL LPS. Supernatants were collected for TNFα determination by ELISA (BD Biosciences, Mississauga, ON, Canada). For analysis of intracellular signaling, 2×10^6 cells were plated the night before in 6 cm tissue culture plates. The next day, the cells were cultured in macrophage medium without M-CSF for 1 hr at 37° C. and then pretreated with AQX-016A or carrier for 30 min prior to the addition of 10 ng/mL LPS for 15 min. Cells were washed with 4° C. PBS and resuspended in lysis buffer (50 mM Hepes, 2 mM EDTA, 1 mM NaVO4, 100 mM NaF, 50 mM NaPPi and 1% NP40) supplemented with Complete Protease Inhibitor Cocktail (Roche, Montreal, Canada). Lysates were rocked at 4° C. for 30 min and clarified by centrifuging 20 min at 12000×g. Lysates were then made 1× in Laemmli's buffer, boiled 2 min and loaded onto 7.5% SDS polyacrylamide […]. Immunoblot analysis for phospho PKB (Cell Signalling, Mississauga, Ont), SHIP and actin (Santa Cruz, Santa Cruz, Calif.) were carried out as described previously.
The target specificity and biological efficacy of AQX-016A were assessed by comparing AQX-016A's effects on PI3K-regulated processes in primary SHIP^+/+ vs SHIP^−/− macrophages and mast cells. […] LPS stimulation of macrophages is associated with a PIP3-dependent release of pro-inflammatory mediators such as TNFα. […]

[2] = tested on: luciferase expressing OPM2 cells; assay: In vivo Multiple Myeloma (MM) assay (Assay 8); parameters: species or system Mice; details: 50 mg/kg every 3 days, subcutaneous oil depot
Procedure: Assay 8) In vivo Multiple Myeloma (MM) assay. Mice were inoculated with at two sites each with 3×10^6 luciferase expressing OPM2 cells suspended in 50 μL of growth medium and 50 μL of Matrigel basement membrane matrix (Becton Dickenson; Bedford, Mass.). Tumors were injected subcutaneously in the upper and lower flanks of the mice and allowed to establish for 2 weeks. After 2 weeks, a test compound or control vehicle was administered in a subcutaneous oil depot at a dose of 50 mg/kg every 3 days.
Tumors were measured using bioluminescence imaging on the Xenogen IVIS 200. Mice received intra-peritoneal injections of 200 μL of D-luciferin at 3.75 mg/mL in sterile PBS. Mice were then anesthetized with isofluorane and imaged 15 minutes post-injection of luciferin. Quantification of tumor size was performed using the Living Image™ software.
MM Xenograft murine model. Mice were inoculated with at two sites each with 3×10^6 luciferase expressing OPM2 cells suspended in 50 μL of growth medium and 50 μL of Matrigel basement membrane matrix (Becton Dickenson; Bedford, Mass.). Tumors were injected subcutaneously in the upper and lower flanks of the mice and allowed to establish for 2 weeks. […]
Tumors were measured using bioluminescence imaging on the Xenogen IVIS 200. […] Quantification of tumor size was performed using the Living Image™ software. […]

EC50 for inhibition of TNFα production ([1]; LPS stimulated SHIP+/+ macrophages): submicromolar
SMILES: Cc1cc(O)cc2c1[C@]1(C)CCC3C(C)(C)CCC[C@]3(C)[C@H]1C2 (stereo partly shown) [Compound 100]
LPS-induced plasma/serum TNFα levels (plasma TNFα): efficiently inhibited
inhibition of TNFα production, SHIP+/+ vs SHIP−/− macrophages ([1]; LPS stimulated): selectively inhibited
Assay Number 8: In vivo Multiple Myeloma (MM) assay [2]: +
